Assay [1] is described as follows: Selectivity ratio is IC50 of Human colon carcinoma cells to that of Monkey normal kidney epithelial cells. It counts as functional, Epithelial cell.
Assay [2] has as its system CX-1. The experiment in a line: Inhibitory concentration against growth of human colon carcinoma cells. The format is functional, cell-based.
For assay [3], the system named is CV-1. The experiment in a line: Inhibitory concentration against growth of monkey normal kidney epithelial cells as a measure of compound toxicity. It counts as functional, cell-based, Cercopithecidae. Conditions: Chlorocebus aethiops.
The subject of assay [4] is MIA PaCa-2. Kind of assay: Inhibitory concentration of compound against growth of human pancreatic carcinoma cells. It counts as functional, cell-based.
In assay [5] the test system is MCF7. The experiment in a line: Inhibitory concentration of compound against growth of human breast carcinoma cells. The format is functional, cell-based.
In assay [6] the test system is Mus musculus. The experiment in a line: 5 mg/kg of compound was administered IP on days 1,5,8,12 to LOX tumor bearing nude mice and the ratio of median survival time of treated to control was reported. The format is functional.
Assay [7] relates to Mus musculus. The experiment in a line: 5 mg/kg of compound was administered IP on days 1,5,7 to CX-1 tumor bearing nude mice and the inhibition ratio was reported. It counts as functional.
Assay [8] relates to Mus musculus. The experiment in a line: 5 mg/kg of compound was administered IP on days 1,3,7,10,16 to OVCARIII tumor bearing nude mice and the ratio of median survival time of treated to control was reported.
The subject of assay [9] is LOX IMVI. The experiment in a line: Inhibitory concentration of compound against growth of human melanoma cells. The format is functional, cell-based.
Assay [10] has as its system Bladder carcinoma cell. Kind of assay: Inhibitory concentration of compound against growth of human bladder carcinoma cells. The format is functional, cell-based.
Assay [11] concerns Mus musculus. Kind of assay: 4 mg/kg of compound was administered IP on days 1,2,4,5,7,8,10 to LOX tumor bearing nude mice and the ratio of median survival time of treated to control was reported. The format is functional. The conditions noted are these: at 4 mg/kg.
Assay [12] concerns Mus musculus. The experiment in a line: 2 mg/kg of compound was administered IP on days 1,2,4,5,7,8,10 to LOX tumor bearing nude mice and the ratio of median survival time of treated to control was reported. It counts as functional. The conditions noted are these: at 2 mg/kg.
In assay [13] the test system is LOX IMVI. Kind of assay: Inhibitory concentration of compound against growth of human melanoma cell cells. It counts as functional, cell-based.
The subject of assay [14] is Mus musculus. The experiment in a line: 5 mg/kg of compound was administered IP on days 1,5,8,12,15 to LOX tumor bearing nude mice and the ratio of median survival time of treated to control was reported. The conditions noted are these: at 5 mg/kg. It counts as functional.
Assay [15] deals with Mus musculus. The experiment in a line: 5 mg/kg of compound was administered IP on days 1,3,7,10,16 to […] tumor bearing nude mice and the ratio of median survival time of treated to control was reported. It counts as functional. The conditions noted are these: at 5 mg/kg.
Assay [16] relates to Mus musculus. Kind of assay: 1.5 mg/kg of compound was administered IP on days 1,3,4,7,9 to LOX tumor bearing nude mice and the ratio of median survival time of treated to control was reported. The format is functional.
Where [17] appears, read: Homo sapiens, Bladder carcinoma cell.

Structures are written as SMILES. A value given as a limit tells only on which side of the number the result lay.

For orientation: IC50 means the midpoint of a concentration-inhibition curve. With `CCN1/C(=C/C=c2/c(=O)n(CC)/c(=C/c3sc4c5ccccc5ccc4[n+]3CC)n2CC)Sc2ccc3ccccc3c21.[I-]`, the Ratio in assay [1] was determined as 8. The 50% inhibitory concentration (IC50) in [2] was 100 nM; in assay [3] it was 800 nM.

In the case of `CCN1/C(=C/C=c2\s/c(=C\c3sc4ccccc4[n+]3CC)n(C)c2=O)Oc2ccccc21.[I-]`, the Ratio in [1] stood at 57. Further, the half-inhibitory concentration (IC50) amounted to 30 nM in [2] and 1700 nM in assay [3].

As for `CCn1c(=O)c(=C2CCCCC2)s/c1=C\c1sc2ccccc2[n+]1CC.Cc1ccc(S(=O)(=O)[O-])cc1`, in assay [1], the Ratio is reported as 9. Moreover, the results for the IC50 in [2] and in assay [3] were 1800 nM and 16200 nM, respectively.

Turning to `CC[n+]1c(/C=c2\s/c(=C\C=C\Nc3ccccc3)c(=O)n2-c2ccccc2)sc2ccccc21.[I-]`, the Ratio in [1] turned out to be 12. Besides, the half-maximal inhibitory concentration (IC50) was 800 nM in [2] and 9800 nM in assay [3].

With `CCN1/C(=C/C=C(Cl)/C=C/c2sc3ccc4ccccc4c3[n+]2CC)Sc2ccc3ccccc3c21.Cc1ccc(S(=O)(=O)[O-])cc1`, the Ratio in [1] is given as 2. The values for the half-inhibitory concentration (IC50) in assay [2] and in assay [3] were 60 nM and 100 nM, respectively.

`CCN1/C(=C/C=C/c2sc3ccccc3[n+]2CC)Sc2ccccc21.[I-]`: the Ratio in assay [1] was 20. Also, the IC50 in assay [2] is 60 nM; in [3], 1200 nM.

As a reminder, the T/C is the ratio of treated to control. For the molecule `CC[n+]1c(/C=c2\s/c(=C3/Sc4ccccc4N3C)c(=O)n2-c2ccccc2)sc2ccccc21.Cc1ccc(S(=O)(=O)[O-])cc1`, the Ratio in assay [1] worked out at 220. Besides, the IC50 in assay [4] (Homo sapiens, MIA PaCa-2) stood at 40 nM; in assay [5] (Homo sapiens, MCF7) it was 60 nM; in [2], 10 nM; in assay [9] it was 40 nM; in [10] (setting [17]), 40 nM; in assay [3], 2200 nM. Besides, the T/C is recorded as 183% in assay [6] and greater than 300% in [8]. Further, in assay [7], the TI came out at 42%.

As to `CC[n+]1c(/C=c2\s/c(=C\Nc3ccccc3)c(=O)n2-c2ccccc2)sc2ccccc21.[Br-]`, the Ratio in assay [1] is on record as 1. For the same molecule, the half-maximal inhibitory concentration (IC50) in assay [2] and in [3] was 1500 nM throughout.

As to `CC[n+]1c(/C=C2\SCC(=O)N2c2ccccc2)sc2ccccc21.[Br-]`, the Ratio in [1] worked out at 20. The results for the half-inhibitory concentration (IC50) in [2] and in assay [3] were 2300 nM and 46100 nM, respectively.

Take `CCN1/C(=C/C=c2/c(=O)s/c(=C/c3sc4ccccc4[n+]3CC)n2C)Oc2ccccc21.[I-]`: the Ratio in [1] was determined as 49. For the same molecule, the concentration for half-maximal inhibition (IC50) in assay [2] is 70 nM; in assay [3], 3400 nM.

Take `CCn1c(=O)/c(=C2\Sc3ccccc3N2C)n(CC)/c1=C\c1sc2ccccc2[n+]1CC.[I-]`: in assay [1], the Ratio came out at 20. The half-maximal inhibitory concentration (IC50) in [2] stood at 1300 nM; in assay [3] it was 25400 nM.

`CC(=O)[O-].CCn1c(=O)/c(=C2\Sc3ccccc3N2C)s/c1=C\c1sc2ccccc2[n+]1CC`: the half-inhibitory concentration (IC50) in assay [4] (Homo sapiens, MIA PaCa-2) was 60 nM; in assay [5] (mcf7), 400 nM; in [13] it was 10 nM; in assay [10] (setting [17]), 60 nM. Further, the T/C in assay [11] turned out to be 163%; in assay [12], 156%.

`CCN1C(=O)CS/C1=C\c1sc2ccccc2[n+]1CC.[Br-]`: in assay [1], the Ratio was determined as 30. Further, the results for the IC50 in assay [2] and in assay [3] were 1300 nM and 38900 nM, respectively.

As to `CCn1c(=O)/c(=C2\Sc3ccccc3N2C)s/c1=C\c1sc2ccccc2[n+]1CC.[I-]`, the Ratio in assay [1] is given as 346. The IC50 in [4] (mia paca-2) is 50 nM; in assay [5] (mcf7), 90 nM; in assay [2], 50 nM; in assay [9], 20 nM; in [10] (bladder carcinoma cell), 70 nM; in [3], 17300 nM. Also, the T/C was determined as 168% in [14] and 180% in [15].

For the molecule `CCN1/C(=C/C=c2\s/c(=C\c3sc4ccccc4[n+]3CC)sc2=O)Oc2ccccc21.[I-]`, in assay [1], the Ratio is less than 2. Besides, the IC50 is greater than 1700 nM in assay [2] and 3400 nM in assay [3].

For `CCN1/C(=C/C=c2\s/c(=C\c3sc4ccccc4[n+]3CC)n(-c3ccccc3)c2=O)Sc2ccccc21.[I-]`, in assay [1], the Ratio is listed as 50. In addition, the IC50 stood at 70 nM in [4] (Homo sapiens, MIA PaCa-2); 40 nM in assay [5] (Homo sapiens, MCF7); 60 nM in [2]; 40 nM in [9]; 400 nM in assay [10] (setting [17]); 3000 nM in [3]. Further, the T/C in assay [16] is on record as 256%.

Take `CCN1/C(=C/C=c2\s/c(=C\c3sc4ccc5ccccc5c4[n+]3CC)n(CC)c2=O)Sc2ccc3ccccc3c21.Cc1ccc(S(=O)(=O)[O-])cc1`: the Ratio in assay [1] amounted to 217. Also, the results for the IC50 in assay [2] and in assay [3] were 30 nM and 6500 nM, respectively.

Source of the values: ChEMBL document CHEMBL1130168, “Synthesis and evaluation of novel rhodacyanine dyes that exhibit antitumor activity” (J Med Chem, 1997).
